Test results published in patent US20240366648A1, “NAD-AUGMENTATION THERAPY FOR PARKINSON'S DISEASE” (Vestlandets Innovasjonsselskap AS (VIS), priority 2021, published 2024).

What was measured:
patients with PD = assay: MDS-UPDRS / Hoehn & Yahr clinical rating, phase I trial; assay type: in vivo, human
Procedure: A single-center, double-blinded, randomized, placebo-controlled phase I trial of oral NR supplementation in newly diagnosed patients with PD was conducted. […] Due to the early onset, this patient underwent genetic investigation with whole-exome sequencing and SNP-chip based genome-wide copy number variation analysis, which excluded pathogenic mutations in PD-related genes, including PINK1 and PRKN. screening. Patient recruitment, inclusion, and follow-up was carried out by a GCP certified investigator. Sample size of 30 participants was chosen based on previously reported brain metabolic network analyses. Thirty PD patients were randomly assigned (Block size 6, allocation 1:1) to 500 mg NR, provided in the form of nicotinamide riboside chloride ([…]® from Chromadex), or placebo twice per day, 12 hours apart, using the electronic Case Report Form (Viedoc.com). The drug containers were sequentially marked by an independent third party. The […]®) and placebo were provided by ChromaDex, USA. Each NR capsule contained 250 mg of NR. Placebo capsules contained microcrystalline cellulose. The vials and capsules containing NR and placebo were identical in shape, colour, and smell. Study drug compliance was calculated from counting returned number of study capsules and self-reporting. Participants, examining physicians, medical- and research personnel were blinded for the duration of the trial. Sample size was determined by comparing previous literature with respect to the primary objective. At screening for trial entry, candidates underwent physical and neurological examination, brain MRI, and […]. Eligible patients who entered the trial were assessed at baseline (visit 1, V1) and after four weeks of exposure to either NR or placebo (visit 2, V2). At both visits, patients underwent physical and neurological examination, including assessment by the Movement Disorder Society Unified Parkinson's Disease Rating Scale section I-IV (MDS-UPDRS), and biological sampling. MR-PET was performed within one week prior to visit 1, and at visit 2. All participants remained naïve for antiparkinson drugs for the duration of the trial. All clinical assessments were performed by a blinded movement disorders expert. Each patient was examined by the same neurologist at both visits. Methodological details on each procedure are provided below. Safety was monitored through routine clinical blood tests and registration of adverse events. Adverse events (AE) were recorded and scored by the investigative physician. […] The AE relation to the study drug was scored as (1) unrelated, (2) unlikely, (3) possible, (4) probable or (5) definitely. The between visit change ([visit 2]-[visit 1]) in MDS-UPDRS (total of subsections I-III; and individual subsections I, II and III) was compared between the NR and placebo groups using independent Student's t-test. In addition, the between visit change in MDS-UPDRS (total and subsections) within the NR, MRS-responder, and placebo groups was assessed by paired Student's t-test. For the 31P-MRS analyses, the change in measured metabolites between visit 1 and visit 2 was assessed in the placebo- and NR group using paired Student's t-test. In addition, the between-visit change in NAD/ATP-α was compared between the NR and placebo group by independent Student's t-test. For PET analyses, changes in network scores with treatment were evaluated for each group separately using paired Student's t-tests or permutation tests. Relationships between network values, NAD levels and MDS-UPDRS motor ratings or between treatment-related changes in these variables were evaluated using Pearson's product-moment correlations; Spearman rank-order correlation coefficients were computed for non-normal distributions of the variables. These statistical tests were performed using SPSS (SPSS Inc., Chicago, IL); results were considered significant for p≤0.05 (two-tailed). […]

[1] = system: gene expression in muscle; assay: RNA-seq differential gene expression in muscle tissue; assay type: in vivo, human; details: NR vs placebo
Procedure: For all subjects at both visits, total RNA was extracted from muscle biopsy tissue and PBMC homogenate using RNeasy plus mini kit (Qiagen) with on-column DNase treatment according to manufacturer's protocol. The final elution was made in 45 ul of dH2O. The concentration and integrity of the total RNA were estimated by Ribogreen assay (Thermo Fisher Scientific), and Fragment Analyzer (Advanced Analytical), respectively, and 10 ng of total RNA was used for downstream RNA-seq applications using the SMARTer Stranded Total RNA-Seq Kit v2-Pico Input Mammalian Kit (IlluminaTakara Bio USA, Inc., Mountian View, CA) as per manufacturer's recommended protocol. Library quantity was assessed by Picogreen Assay (Thermo Fisher Scientific), and the library quality was estimated by utilizing a DNA High Sense chip on a Caliper Gx (Perkin Elmer). Accurate quantification of the final libraries for sequencing applications was determined using the qPCR-based KAPA Biosystems Library Quantification kit (Kapa Biosystems, Inc.). Each library pooled equimolar prior to clustering. One hundred bp paired-end sequencing was performed on an Illumina NovaSeq S4 sequencer (Illumina, Inc.). Two subjects were discarded from the PBMC samples and two from the muscle samples due to either insufficient tissue quantity, participant drop out/lack of sample, or being outliers in expression. […] FASTQ files were assessed using […] version 0.11.9. Quantification at the transcript level was calculated using Salmon version 1.3.0 with fragment-level GC bias correction against the GENCODE version 35, with the whole genome as decoy sequence. Transcript-level quantification was collapsed onto gene-level using the tximport R package version 1.8.0. Genes in non-canonical chromosomes and scaffolds and transcripts encoded by the mitochondrial genome were filtered out, together with non-protein-coding genes. Low-expressed genes were likewise removed from downstream analyses (expression below 10 reads for 75% of the samples). PBMC and muscle datasets were analysed independently. For PBMC samples, cell type composition was assessed employing ABIS. Differential gene expression was performed using the DESeq2 R package version 1.22.2. The generalized linear model formula accounted for both interindividual variability between subjects and the normal course of the experiment (baseline for each subject and baseline for the time-course). Multiple hypothesis testing was performed with the default automatic filtering of DESeq2 followed by false discovery rate (FDR) calculation by the Benjamini-Hochberg procedure.

[2] = Visit 1 (baseline), MRS Responders N=10
[3] = Visit 1 (baseline), NR group N=15
[4] = Visit 2 (after four weeks), MRS Responders N=10
[5] = Visit 2 (after four weeks), NR group N=15

Question: Which “mean decrease in MDS-UPDRS between visits” value (patients with PD; MRS-responder subgroup (n=10), paired t-test p=0.071) does the source give for `NC(=O)c1ccc[n+]([C@@H]2O[C@H](CO)[C@@H](O)[C@H]2O)c1` [NR, nicotinamide riboside] here?
Answer: Its value is 1.9±2.78.

Question: What about the “clinical change as measured by the UPDRS scale” value (patients with PD; NR 1000 mg daily, one month) of the same compound?
Answer: The value was “mild clinical improvement”.

Question: What about the “motor symptoms in PD patients who received NR” value (patients with PD; NR 1000 mg daily, one month) of the same compound?
Answer: The value was “no worsening of motor symptoms”.

Question: And the “Hoehn & Yahr Stage, mean” value (patients with PD; [2])?
Answer: The value was 1.7.

Question: What about the “MDS-UPDRS I, mean score” value (patients with PD; [2]) of the same compound?
Answer: Its value is 6.2.

Question: What about the “MDS-UPDRS II, mean score” value (patients with PD; [2]) of the same compound?
Answer: Its value is 6.4.

Question: And the “MDS-UPDRS III, mean score” value (patients with PD; [2])?
Answer: The value was 29.6.

Question: What about the “Total score MDS-UPDRS (I-III), mean” value (patients with PD; [2]) of the same compound?
Answer: Its value is 42.2.

Question: What about the “Hoehn & Yahr Stage, mean” value (patients with PD; [3]) of the same compound?
Answer: The value was 1.8.

Question: And the “MDS-UPDRS I, mean score” value (patients with PD; [3])?
Answer: The value was 6.3.

Question: And the “MDS-UPDRS II, mean score” value (patients with PD; [3])?
Answer: The value was 7.9.

Question: And the “MDS-UPDRS III, mean score” value (patients with PD; [3])?
Answer: The value was 31.1.

Question: And the “Total score MDS-UPDRS (I-III), mean” value (patients with PD; [3])?
Answer: Its value is 45.2.

Question: And the “Hoehn & Yahr Stage, mean” value (patients with PD; [4])?
Answer: The value was 1.8.

Question: What about the “MDS-UPDRS I, mean score” value (patients with PD; [4]) of the same compound?
Answer: Its value is 5.3.

Question: What about the “MDS-UPDRS II, mean score” value (patients with PD; [4]) of the same compound?
Answer: Its value is 6.4.

Question: And the “MDS-UPDRS III, mean score” value (patients with PD; [4])?
Answer: Its value is 28.7.

Question: What about the “Total score MDS-UPDRS (I-III), mean” value (patients with PD; [4]) of the same compound?
Answer: Its value is 40.4.

Question: And the “Hoehn & Yahr Stage, mean” value (patients with PD; [5])?
Answer: Its value is 1.9.

Question: What about the “MDS-UPDRS I, mean score” value (patients with PD; [5]) of the same compound?
Answer: The value was 5.4.

Question: What about the “MDS-UPDRS II, mean score” value (patients with PD; [5]) of the same compound?
Answer: Its value is 8.3.

Question: And the “MDS-UPDRS III, mean score” value (patients with PD; [5])?
Answer: Its value is 30.5.

Question: What about the “Total score MDS-UPDRS (I-III), mean” value (patients with PD; [5]) of the same compound?
Answer: The value was 44.1.

Question: And the “mean decrease in MDS-UPDRS between visits” value (patients with PD; nine individuals with >10% increase in cerebral NAD, paired t-test p=0.017)?
Answer: The value was 2.33±2.35.

Question: What about the “KLF2 expression in muscle” value [1] of the same compound?
Answer: The value was “substantial upregulation”.

Question: What about the “expression of PARP15, AMT, FARS2, TMEM242 in muscle” value [1] of the same compound?
Answer: Its value is “upregulation”.

Question: What about the “gene set enrichment in muscle: proteasomal function, RNA transport and stability” value [1] of the same compound?
Answer: The value was “upregulation”.

Question: What about the “number of differentially expressed genes in muscle tissue” value ([1]; between visit differences, FDR<0.05) of the same compound?
Answer: The value was 58 genes.
